Assay in all cases: NCI-60 cell line screen, 48 h
In assay [1] the test system is SF-539 CNS.
The test system of assay [2] is SR leukemia.
Assay [3] concerns SNB-75 CNS.
For assay [4], the system named is M14 melanoma.
Assay [5] deals with T-47D breast.
For assay [6], the system named is DU-145 prostate.
Assay [7] has as its system IGROV1 ovarian.
Assay [8] deals with HOP-92 NSCLC.
For assay [9], the system named is UO-31 renal.
Assay [10] relates to SK-MEL-28 melanoma.
Assay [11] has as its system K-562 leukemia.
Assay [12] has as its system HOP-62 NSCLC.
The test system of assay [13] is NCI-H460 lung.
Assay [14] deals with UACC-62 melanoma.
Assay [15] concerns HS 578T breast.
Assay [16] deals with BT-549 breast.
For assay [17], the system named is ACHN renal.
The subject of assay [18] is SN12C renal.
Assay [19] concerns MDA-N.
The test system of assay [20] is A498 renal.

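1) Cells in 96-well plates. 2) Compound, 48 h, 5 concentrations. 3) Linear interpolation between surrounding doses. 4) Unreached endpoint = highest concentration. TGI marks complete inhibition of growth.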 A value given as a limit tells only on which side of the number the result lay.

With `c1cncc(C2(c3cc4ccccc4[nH]3)COCO2)c1` (centres undefined), the TGI in assay [1], in assay [2], in assay [3], in assay [4], in assay [5] and in assay [6] was greater than 100 µM in each case. Moreover, the TGI in [7], in assay [8], in [9], in [10], in assay [11] and in assay [12] was greater than 100 µM in each case. The TGI in assay [13], in [14], in [15], in [16] and in assay [17] was greater than 100 µM in each case.
Take `CC(C)Oc1c(O)c2c3c(oc(=O)n3C=CC2c2ccccc2)c1OC(C)C` (centres undefined): the TGI is 43.1 µM in assay [1]; greater than 100 µM in [18]; 53.2 µM in assay [3]; 41.4 µM in [4]; greater than 100 µM in assay [5]; greater than 100 µM in assay [6]. Also, the TGI in assay [7] is 83.1 µM; in assay [8], greater than 100 µM; in [9], 37.2 µM; in [10] it was 54.5 µM; in [12], greater than 100 µM; in [13] it was 35.1 µM. In addition, the TGI in assay [19] is greater than 100 µM.
For `CN1C2=C(CC3=C1CC(C)(C)CC3=O)C(=O)CC(C)(C)C2`, the TGI in [1], in assay [18], in assay [2], in assay [3], in assay [4] and in assay [20] was greater than 100 µM throughout. Besides, the TGI in assay [7], in assay [8], in assay [9], in [10], in assay [11] and in assay [13] was greater than 100 µM in each case. In addition, the TGI in [14], in assay [15], in [16] and in assay [17] was greater than 100 µM in each case.
Regarding `BrC1=CCC23CC=C(Br)[C@H]4CC2(COC3)C[C@@H]1O4` (some centres undefined), the TGI was greater than 100 µM in assay [1]; greater than 100 µM in assay [18]; greater than 100 µM in assay [2]; 41.6 µM in assay [3]; greater than 100 µM in [4]; greater than 100 µM in assay [7]. Also, the TGI is 82.4 µM in assay [9]; 62.1 µM in [10]; 89 µM in assay [11]; greater than 100 µM in assay [12]; greater than 100 µM in assay [13]; greater than 100 µM in assay [14]. In assay [17], this compound showed a TGI greater than 100 µM.
Regarding `O=c1ccn2n1Cc1ccccc1C2`, the TGI in [1], in [18], in assay [2], in assay [4], in assay [5] and in assay [6] was greater than 100 µM each time. The TGI in [20], in assay [7], in assay [8], in assay [9], in assay [10] and in assay [11] was greater than 100 µM each time. Besides, the TGI in [12], in assay [13], in assay [14], in [15] and in assay [17] was greater than 100 µM throughout.
With `O=c1cc(-c2ccccc2)c2ccccc2[nH]1`, the TGI is greater than 100 µM in [1]; greater than 100 µM in [18]; greater than 100 µM in assay [2]; 46.5 µM in assay [3]; greater than 100 µM in assay [4]; greater than 100 µM in [7]. Also, the TGI in assay [8] was 48.1 µM; in [9], 55.9 µM; in assay [10], greater than 100 µM; in assay [11], greater than 100 µM; in [12], greater than 100 µM; in assay [13], greater than 100 µM. Moreover, the TGI in assay [14] and in assay [17] was greater than 100 µM each time.
As for `O=S1(=O)OCCOS(=O)(=O)C1S(=O)(=O)c1ccc2ccccc2c1`, the TGI in assay [18], in assay [2], in [4], in assay [6], in assay [7] and in assay [8] was greater than 100 µM each time. Besides, the TGI in [9], in [10], in assay [11], in assay [12], in assay [13] and in assay [19] was greater than 100 µM each time. Also, the TGI in [16] and in [17] was greater than 100 µM in each case.
For the compound `S=c1nc(N2CCCCC2)c2cn[nH]c2[nH]1`, the TGI in [1] was greater than 100 µM; in assay [18], greater than 100 µM; in assay [2], 40.7 µM; in assay [3], greater than 100 µM; in assay [4], greater than 100 µM; in assay [5], greater than 100 µM. Moreover, the TGI was greater than 100 µM in [6]; greater than 100 µM in [20]; 56.5 µM in assay [7]; 77.9 µM in [9]; greater than 100 µM in assay [10]; greater than 100 µM in assay [11]. The TGI in [12], in assay [13], in assay [14], in assay [15], in assay [16] and in assay [17] was greater than 100 µM each time.
As for `COc1cc(C=O)cc(/C=N/n2c3ccccc3c3ccccc32)c1O`, the TGI in assay [1] is greater than 100 µM; in assay [18], greater than 100 µM; in assay [2], greater than 100 µM; in assay [3] it was 15.7 µM; in assay [4], greater than 100 µM; in [5] it was greater than 100 µM. Moreover, the TGI was greater than 100 µM in assay [6]; 48.7 µM in assay [20]; 9.58 µM in assay [8]; greater than 100 µM in assay [9]; greater than 100 µM in assay [10]; 67.7 µM in assay [11]. The TGI was greater than 100 µM in assay [12]; greater than 100 µM in assay [13]; greater than 100 µM in [14]; greater than 100 µM in [15]; 9.7 µM in [16]; greater than 100 µM in assay [17].
For the compound `NC(=O)Nc1ccc(S(=O)(=O)Nc2ccc(S(N)(=O)=O)cc2)cc1`, the TGI in [18], in assay [4], in [5], in [6], in assay [20] and in [7] was greater than 100 µM in each case. For the same compound, the TGI in assay [8], in assay [9], in [10], in assay [11], in [12] and in assay [13] was greater than 100 µM each time. The TGI in [14], in assay [19], in assay [16] and in [17] was greater than 100 µM each time.
As for `Cc1ccc(NCC(=O)N2CC(=O)Nc3ccccc32)c(C)c1`, the TGI in assay [1], in assay [18], in assay [2], in assay [3], in assay [4] and in assay [8] was greater than 100 µM each time. Besides, the TGI in assay [9], in [10], in [11], in [12], in assay [13] and in [14] was greater than 100 µM in each case. This compound yielded a TGI in assay [17] greater than 100 µM.
Turning to `Cc1c2ccncc2c(C)c2c1[nH]c1ccc(OC(C)C)cc12`, the TGI in assay [1] turned out to be 3.36 µM; in assay [18] it was 2.45 µM; in [2], 3.73 µM; in assay [3] it was 3.36 µM; in [4], 2.96 µM; in assay [20] it was 2.78 µM. Further, the TGI in assay [7] stood at 2.79 µM; in assay [8], 3.22 µM; in assay [9] it was 2.89 µM; in assay [10], 3.21 µM; in assay [11], 4.4 µM; in assay [12] it was 2.66 µM. The TGI worked out at 2.25 µM in [13] and 2.56 µM in assay [17].
Take `COC(=O)C1=C(C)NC(C)=C(C(=O)OC)C1c1ccccc1NO`: the TGI in assay [1], in assay [18], in [2], in assay [4], in assay [5] and in [6] was greater than 100 µM in each case. The TGI in assay [20], in [7], in assay [8], in assay [9], in assay [10] and in assay [11] was greater than 100 µM in each case. The TGI in assay [12], in assay [13], in assay [14], in assay [15], in [16] and in [17] was greater than 100 µM each time.
As for `COC(=O)/C=C\COCC1C2CCC(=O)C21` (centres undefined), the TGI is 19.4 µM in [1]; greater than 25 µM in assay [18]; greater than 25 µM in assay [2]; greater than 25 µM in assay [3]; greater than 25 µM in assay [4]; greater than 25 µM in [6]. Besides, the TGI was greater than 25 µM in assay [7]; 10.6 µM in assay [8]; greater than 25 µM in assay [9]; greater than 25 µM in [10]; greater than 25 µM in [11]; greater than 25 µM in assay [12]. Besides, the TGI in assay [13] was 24.3 µM; in assay [14], greater than 25 µM; in [19], greater than 25 µM; in assay [16], greater than 25 µM; in assay [17], greater than 25 µM.
Regarding `[N-]=[N+]=NC(CCl)c1cn([C@H]2C[C@H](O)[C@@H](CO)O2)c(=O)[nH]c1=O` (some centres undefined), the TGI in assay [1], in assay [18], in assay [2], in assay [3], in assay [4] and in assay [7] was greater than 100 µM throughout. Also, the TGI in assay [8], in assay [9], in assay [10], in assay [11], in [12] and in assay [13] was greater than 100 µM throughout. Also, the TGI in [14] and in assay [17] was greater than 100 µM throughout.
As for `COc1ccc(/C=C2\CCC(CNc3ccc(S(N)(=O)=O)cc3)C2=O)cc1` (centres undefined), the TGI in [1] was greater than 59.2 µM; in [18] it was 35.9 µM; in assay [3], 76.2 µM; in [4] it was 36.4 µM; in [5] it was 43.1 µM; in assay [6] it was greater than 88.1 µM. Besides, the TGI in [20] is greater than 86 µM; in [7] it was 43.4 µM; in assay [8] it was 22.5 µM; in assay [9] it was 12.2 µM; in [10], 34.7 µM; in [11], 3.74 µM. For the same compound, the TGI in assay [12] was greater than 85.6 µM; in assay [13], greater than 77.2 µM; in assay [14] it was 50.6 µM; in assay [15], greater than 91.1 µM; in assay [16], 33.9 µM; in assay [17], 53.7 µM.
On to `CN1Cc2cc3cc4c(cc3nc2N(C)C1)OCCO4`, for which the TGI in [1], in [18], in [3], in assay [4], in [20] and in assay [7] was greater than 100 µM in each case. For the same compound, the TGI in assay [8], in assay [11], in assay [12], in [13], in assay [14] and in [19] was greater than 100 µM each time. Further, the TGI in assay [16] and in assay [17] was greater than 100 µM throughout.
With `CC(C)=CC1C[C@H](C2CC=C3C2(C)CCC2[C@@]3(C)C(=O)CC3[C@]2(C)C=CC(=O)[C@]3(C)CO)CO1` (some centres undefined), the TGI in assay [1] was 11.9 µM; in assay [18], 63.2 µM; in [2], 10.8 µM; in assay [3] it was 23.1 µM; in assay [4], 12.1 µM; in assay [20], 23.2 µM. Also, the TGI stood at 29.5 µM in assay [7]; 41.3 µM in assay [8]; 33.1 µM in assay [9]; 19 µM in assay [10]; 31.3 µM in assay [11]; 30.6 µM in assay [12]. Besides, the figures for the TGI in assay [13], in [14] and in assay [17] were 25.4 µM, 31 µM and 30.7 µM, respectively.

Values taken from PubChem BioAssay (NCI).
